Results published in patent US8552002B2 (Novartis AG, priority 2004, dated 2013).
One block for each molecule: values may come before it.

Columns and labels:
Type in all cases: biochemical
KDR = molecular target: T1, KDR (Homo sapiens, UniProt P35968); assay: Inhibitory activity against KDR (VEGF-R2), in vitro data of Examples 170 and 207; settings: 10 μM; Examples 1 to 169; read-out: KDR inhibition at 10 μM
T1 construct: expressed in transfected cells; host or cells: CHO cells
Summary of the method: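 KDR tyrosine phosphorylation detected by luminescence after overnight 4° C capture of 20 μg lysate protein with PY20:AP antibody. Lysates came from cells given compound for 2 h at 37° C, then final 20 ng/ml VEGF for 5 min; compound-free medium as control.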

FGFR3 (K650E) = molecular target: T2, FGFR3 (K650E) (Homo sapiens, UniProt P22607, K650E); assay: Recombinant GST-FGFR-3-K650E tyrosine kinase assay (33P into poly(Glu,Tyr)); settings: 10 μM; Examples 1 to 169; read-out: FGFR3 (K650E) inhibition at 10 μM
T2 construct: amino acids 411-806 of the cytoplasmic domain of human FGFR-3, N-terminally fused to GST; made in house; host or cells: Sf9 insect cells (baculovirus)
T2 sequence (P22607 411-806 K650E): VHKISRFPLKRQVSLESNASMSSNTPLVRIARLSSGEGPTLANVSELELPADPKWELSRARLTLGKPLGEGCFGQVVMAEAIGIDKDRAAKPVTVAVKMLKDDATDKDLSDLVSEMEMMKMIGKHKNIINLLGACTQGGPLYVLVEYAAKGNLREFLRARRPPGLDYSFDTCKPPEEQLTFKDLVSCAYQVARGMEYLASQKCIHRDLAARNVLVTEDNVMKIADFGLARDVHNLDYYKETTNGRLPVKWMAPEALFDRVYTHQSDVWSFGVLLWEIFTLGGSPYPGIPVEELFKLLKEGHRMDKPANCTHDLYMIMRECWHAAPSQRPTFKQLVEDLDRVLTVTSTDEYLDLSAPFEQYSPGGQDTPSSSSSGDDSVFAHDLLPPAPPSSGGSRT

Tek = molecular target: T3, Tek (Homo sapiens, UniProt Q02763); assay: Recombinant GST-Tek (Tie-2) tyrosine kinase assay (33P into poly(Glu,Tyr)); settings: Examples 1 to 169
T3 construct: amino acids 773-1124 of the cytoplasmic kinase domain of human Tek, N-terminally fused to GST; made in house; host or cells: Sf9 insect cells (baculovirus)
T3 sequence (Q02763 773-1124): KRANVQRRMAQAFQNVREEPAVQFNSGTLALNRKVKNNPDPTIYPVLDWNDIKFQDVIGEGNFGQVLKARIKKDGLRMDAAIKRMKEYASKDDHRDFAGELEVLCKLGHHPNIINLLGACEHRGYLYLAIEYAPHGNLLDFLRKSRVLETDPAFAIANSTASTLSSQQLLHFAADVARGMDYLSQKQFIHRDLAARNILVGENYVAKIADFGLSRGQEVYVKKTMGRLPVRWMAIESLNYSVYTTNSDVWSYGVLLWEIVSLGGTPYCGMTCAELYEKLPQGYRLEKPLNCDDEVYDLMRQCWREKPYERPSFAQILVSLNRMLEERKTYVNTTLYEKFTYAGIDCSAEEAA
Summary of the method: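 Read-out is filter-bound 33P in poly(Glu,Tyr) 4:1 (10 μg/mL) after 30 min at ambient temperature with 4.0 μM ATP. Enzyme: 150 ng human GST-Tek (aa 773-1124) from insect cells, in Tris pH 7.5 with Mn2+/Mg2+ and vanadate. IC50 fitted linearly over four concentrations, usually 0.01-10 μM.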

T1 sequence (P35968 20-1356): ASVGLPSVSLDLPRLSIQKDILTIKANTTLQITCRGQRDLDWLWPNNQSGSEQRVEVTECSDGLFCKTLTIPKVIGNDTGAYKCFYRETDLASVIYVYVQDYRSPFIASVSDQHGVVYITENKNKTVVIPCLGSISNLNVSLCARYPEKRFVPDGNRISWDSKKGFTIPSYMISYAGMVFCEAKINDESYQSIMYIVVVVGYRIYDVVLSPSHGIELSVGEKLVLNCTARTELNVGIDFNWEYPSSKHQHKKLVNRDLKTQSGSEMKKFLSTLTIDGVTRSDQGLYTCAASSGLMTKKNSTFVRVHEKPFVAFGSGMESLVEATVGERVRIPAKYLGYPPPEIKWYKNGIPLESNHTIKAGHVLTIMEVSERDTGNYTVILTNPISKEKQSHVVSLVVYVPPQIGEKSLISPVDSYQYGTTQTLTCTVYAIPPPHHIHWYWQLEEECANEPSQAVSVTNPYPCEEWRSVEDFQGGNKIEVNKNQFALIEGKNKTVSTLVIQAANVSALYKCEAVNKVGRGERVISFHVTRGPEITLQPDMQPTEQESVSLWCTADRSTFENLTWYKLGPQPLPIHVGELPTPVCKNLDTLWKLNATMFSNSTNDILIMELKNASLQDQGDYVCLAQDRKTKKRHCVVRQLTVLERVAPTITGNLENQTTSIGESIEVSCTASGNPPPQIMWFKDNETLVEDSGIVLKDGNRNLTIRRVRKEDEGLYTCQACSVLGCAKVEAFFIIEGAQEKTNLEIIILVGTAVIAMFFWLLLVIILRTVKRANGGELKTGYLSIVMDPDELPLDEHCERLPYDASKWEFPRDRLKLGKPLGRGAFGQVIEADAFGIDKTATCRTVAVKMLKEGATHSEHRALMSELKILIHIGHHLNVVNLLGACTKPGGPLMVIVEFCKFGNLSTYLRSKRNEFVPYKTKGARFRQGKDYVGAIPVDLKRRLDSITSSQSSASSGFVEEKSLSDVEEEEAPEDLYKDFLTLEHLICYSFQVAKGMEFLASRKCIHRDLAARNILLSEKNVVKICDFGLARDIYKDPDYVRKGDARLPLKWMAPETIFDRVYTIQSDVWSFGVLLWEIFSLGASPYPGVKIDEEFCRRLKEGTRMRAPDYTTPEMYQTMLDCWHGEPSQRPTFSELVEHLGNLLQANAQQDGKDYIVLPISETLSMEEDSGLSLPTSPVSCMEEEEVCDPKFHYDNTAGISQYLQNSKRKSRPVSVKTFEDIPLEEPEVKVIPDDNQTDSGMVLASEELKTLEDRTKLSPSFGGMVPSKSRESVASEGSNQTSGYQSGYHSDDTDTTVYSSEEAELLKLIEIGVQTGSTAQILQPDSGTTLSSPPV

Structure (SMILES): CCN(C(=O)Nc1cccc(OC)c1OC)c1cc(Nc2ccc(N3CCN(C)CC3)cc2)ncn1 [Example 46, 3-(2,3-Dimethoxy-phenyl)-1-ethyl-1-{6-[4-(4-methyl-piperazin-1-yl)-phenylamino]-pyrimidin-4-yl}-urea]
inhibition at 10 µM (KDR): 67 to 100% | inhibition at 10 µM (FGFR3 (K650E)): 27 to 100% | inhibition at 10 µM (Tek): 12 to 100%

Structure (SMILES): Cc1cccc(Cl)c1NC(=O)Nc1cc(Nc2cccc(N3CCN(C)CC3)c2)ncn1 [Example 7, 1-(2-Chloro-6-methyl-phenyl)-3-{6-[3-(4-methyl-piperazin-1-yl)-phenyl-amino]-pyrimidin-4-yl}-urea]
inhibition at 10 µM (KDR): 67 to 100% | inhibition at 10 µM (FGFR3 (K650E)): 27 to 100% | inhibition at 10 µM (Tek): 12 to 100%

Structure (SMILES): COc1cc(NC(=O)Nc2cc(Nc3ccc(N4CCN(C)CC4)cc3)ncn2)cc(OC)c1OC [Example 14, 1-{6-[4-(4-Methyl-piperazin-1-yl)-phenylamino]-pyrimidin-4-yl}-3-(3,4,5-trimethoxy-phenyl)-urea]
inhibition at 10 µM (KDR): 67 to 100% | inhibition at 10 µM (FGFR3 (K650E)): 27 to 100% | inhibition at 10 µM (Tek): 12 to 100%

Structure (SMILES): COc1cc(NC(=O)Nc2cc(Nc3ccccc3)ncn2)c(Cl)c(OC)c1 [Example 39, 1-(2-Chloro-3,5-dimethoxy-phenyl)-3-(6-phenylamino-pyrimidin-4-yl)-urea]
inhibition at 10 µM (KDR): 67 to 100% | inhibition at 10 µM (FGFR3 (K650E)): 27 to 100% | inhibition at 10 µM (Tek): 12 to 100%

Structure (SMILES): COc1cc(NC(=O)N(C)c2cc(Nc3ccc(C(=O)N4CCN(C)CC4)cc3)ncn2)c(Cl)c(OC)c1 [Example 52, 3-(2-Chloro-3,5-dimethoxy-phenyl)-1-methyl-1-{6-[4-(4-methyl-piperazine-1-carbonyl)-phenylamino]-pyrimidin-4-yl}-urea]
inhibition at 10 µM (KDR): 67 to 100% | inhibition at 10 µM (FGFR3 (K650E)): 27 to 100% | inhibition at 10 µM (Tek): 12 to 100%

Structure (SMILES): CN1CCN(c2cccc(Nc3cc(NC(=O)Nc4cc(Cl)cc(Cl)c4)ncn3)c2)CC1 [Example 11, 1-(3,5-Dichloro-phenyl)-3-{6-[3-(4-methyl-piperazin-1-yl)-phenylamino]-pyrimidin-4-yl}-urea]
inhibition at 10 µM (KDR): 67 to 100% | inhibition at 10 µM (FGFR3 (K650E)): 27 to 100% | inhibition at 10 µM (Tek): 12 to 100%

Structure (SMILES): COc1cc(NC(=O)Nc2cc(Nc3cccc(OCCN(C)C)c3)ncn2)c(Cl)c(OC)c1 [Example 43, 1-(2-Chloro-3,5-dimethoxy-phenyl)-3-{6-[3-(2-dimethylamino-ethoxy)-phenylamino]-pyrimidin-4-yl}-urea]
inhibition at 10 µM (KDR): 67 to 100% | inhibition at 10 µM (FGFR3 (K650E)): 27 to 100% | inhibition at 10 µM (Tek): 12 to 100%

Structure (SMILES): COc1cc(NC(=O)Nc2cc(Nc3cccc(OCCN4CCOCC4)c3)ncn2)c(Cl)c(OC)c1 [Example 45, 1-(2-Chloro-3,5-dimethoxy-phenyl)-3-{6-[3-(2-morpholin-4-yl-ethoxy)-phenylamino]-pyrimidin-4-yl}-urea]
inhibition at 10 µM (KDR): 67 to 100% | inhibition at 10 µM (FGFR3 (K650E)): 27 to 100% | inhibition at 10 µM (Tek): 12 to 100%

Structure (SMILES): O=C(Nc1cc(Nc2ccc(OCCCN3CCOCC3)cc2)ncn1)Nc1c(Cl)cccc1Cl [Example 98, 1-(2,6-Dichloro-phenyl)-3-{6-[4-(3-morpholin-4-yl-propoxy)-phenylamino]-pyrimidin-4-yl}-urea]
inhibition at 10 µM (KDR): 67 to 100% | inhibition at 10 µM (FGFR3 (K650E)): 27 to 100% | inhibition at 10 µM (Tek): 12 to 100%

Structure (SMILES): COc1ccc(Cl)c(NC(=O)N(C)c2cc(Nc3ccc(C(=O)N4CCN(C)CC4)cc3)ncn2)c1Cl [Example 61, 3-(2,6-Dichloro-3-methoxy-phenyl)-1-methyl-1-{6-[4-(4-methyl-piperazine-1-carbonyl)-phenylamino]-pyrimidin-4-yl}-urea]
inhibition at 10 µM (KDR): 67 to 100% | inhibition at 10 µM (FGFR3 (K650E)): 27 to 100% | inhibition at 10 µM (Tek): 12 to 100%

Structure (SMILES): COc1cc(NC(=O)Nc2cc(Nc3cccc(N4CCN(C)CC4)c3)ncn2)ccc1F [Example 33, 1-(4-Fluoro-3-methoxy-phenyl)-3-{6-[3-(4-methyl-piperazin-1-yl)-phenyl-amino]-pyrimidin-4-yl}-urea]
inhibition at 10 µM (KDR): 67 to 100% | inhibition at 10 µM (FGFR3 (K650E)): 27 to 100% | inhibition at 10 µM (Tek): 12 to 100%

Structure (SMILES): CN1CCN(c2ccc(Nc3cc(NC(=O)Nc4ccccc4Br)ncn3)cc2)CC1 [Example 94, 1-(2-Bromo-phenyl)-3-{6-[4-(4-methyl-piperazin-1-yl)-phenylamino]-pyrimidin-4-yl}-urea]
inhibition at 10 µM (KDR): 67 to 100% | inhibition at 10 µM (FGFR3 (K650E)): 27 to 100% | inhibition at 10 µM (Tek): 12 to 100%

Structure (SMILES): CCN(CC)CCCOc1ccc(N(C(=O)Nc2ccccc2Cl)c2cc(N)ncn2)cc1 [Example 95, 1-(6-Amino-pyrimidin-4-yl}-3-(2-chloro-phenyl)-1-[4-(3-diethylamino-propoxy)-phenyl]-urea]
inhibition at 10 µM (KDR): 67 to 100% | inhibition at 10 µM (FGFR3 (K650E)): 27 to 100% | inhibition at 10 µM (Tek): 12 to 100%

Structure (SMILES): COc1ccc(NC(=O)Nc2cc(Nc3ccc(N4CCN(C)CC4)cc3)ncn2)cc1Cl [Example 24, 1-(3-Chloro-4-methoxy-phenyl)-3-{6-[4-(4-methyl-piperazin-1-yl)-phenyl-amino]-pyrimidin-4-yl}-urea]
inhibition at 10 µM (KDR): 67 to 100% | inhibition at 10 µM (FGFR3 (K650E)): 27 to 100% | inhibition at 10 µM (Tek): 12 to 100%

The next lines start with the values.

inhibition at 10 µM (KDR): 67 to 100% | inhibition at 10 µM (FGFR3 (K650E)): 27 to 100% | inhibition at 10 µM (Tek): 12 to 100%
Structure (SMILES): O=C(Nc1cc(Nc2cccc(Cl)c2)ncn1)Nc1ccccc1F [Example 130, 1-[6-(3-Chloro-phenylamino)-pyrimidin-4-yl]-3-(2-fluoro-phenyl)-urea]

inhibition at 10 µM (KDR): 67 to 100% | inhibition at 10 µM (FGFR3 (K650E)): 27 to 100% | inhibition at 10 µM (Tek): 12 to 100%
Structure (SMILES): CCN1CCN(Cc2ccc(Nc3cc(N(C)C(=O)Nc4c(Cl)c(OC)cc(OC)c4Cl)ncn3)cc2)CC1 [Example 149, 3-(2,6-Dichloro-3,5-dimethoxy-phenyl)-1-{6-[4-(4-ethyl-piperazin-1-ylmethyl)-phenylamino]-pyrimidin-4-yl}-1-methyl-urea]

inhibition at 10 µM (KDR): 67 to 100% | inhibition at 10 µM (FGFR3 (K650E)): 27 to 100% | inhibition at 10 µM (Tek): 12 to 100%
Structure (SMILES): COc1cc(OC)c(Cl)c(NC(=O)N(C)c2cc(Nc3ccc(N4CCN(C(C)C)CC4)cc3)ncn2)c1Cl [Example 163, 3-(2,6-Dichloro-3,5-dimethoxy-phenyl)-1-{6-[4-(4-isopropyl-piperazin-1-yl)-phenylamino]-pyrimidin-4-yl}-1-methyl-urea]

inhibition at 10 µM (KDR): 67 to 100% | inhibition at 10 µM (FGFR3 (K650E)): 27 to 100% | inhibition at 10 µM (Tek): 12 to 100%
Structure (SMILES): CCN(CC)CCOc1ccc(Nc2cc(N(C)C(=O)Nc3c(Cl)c(OC)cc(OC)c3Cl)ncn2)cc1 [Example 152, 3-(2,6-Dichloro-3,5-dimethoxy-phenyl)-1-{6-[4-(2-diethylamino-ethoxy)-phenylamino]-pyrimidin-4-yl}-1-methyl-urea]

inhibition at 10 µM (KDR): 67 to 100% | inhibition at 10 µM (FGFR3 (K650E)): 27 to 100% | inhibition at 10 µM (Tek): 12 to 100%
Structure (SMILES): COc1ccc(NC(=O)N(C)c2cc(Nc3ccc(F)cc3)ncn2)cc1 [Example 116, 1-[6-(4-Fluoro-Phenylamino)-pyrimidin-4-yl]-3-(4-methoxy-phenyl)-1-methyl-urea]

inhibition at 10 µM (KDR): 67 to 100% | inhibition at 10 µM (FGFR3 (K650E)): 27 to 100% | inhibition at 10 µM (Tek): 12 to 100%
Structure (SMILES): CCN1CCN(Cc2ccc(Nc3cc(NC(=O)Nc4c(Cl)c(OC)cc(OC)c4Cl)ncn3)cc2C(F)(F)F)CC1 [Example 168, 1-(2,6-Dichloro-3,5-dimethoxy-phenyl)-3-{6-[4-(4-ethyl-piperazin-1-ylmethyl)-3-trifluoromethyl-phenylamino]-pyrimidin-4-yl}-urea]

inhibition at 10 µM (KDR): 67 to 100% | inhibition at 10 µM (FGFR3 (K650E)): 27 to 100% | inhibition at 10 µM (Tek): 12 to 100%
Structure (SMILES): CN(C(=O)Nc1c(Cl)cccc1Cl)c1cc(Nc2ccc(F)cc2)ncn1 [Example 123, 3-(2,6-Dichloro-phenyl)-1-[6-(4-fluoro-phenylamino)-pyrimidin-4-yl]-1-methyl-urea]

inhibition at 10 µM (KDR): 67 to 100% | inhibition at 10 µM (FGFR3 (K650E)): 27 to 100% | inhibition at 10 µM (Tek): 12 to 100%
Structure (SMILES): Cc1cccc(C)c1NC(=O)Nc1cc(Nc2cccc(Cl)c2)ncn1 [Example 140, 1-[6-(3-Chloro-phenylamino)-pyrimidin-4-yl]-3-(2,6-dimethyl-phenyl)-urea]

inhibition at 10 µM (KDR): 67 to 100% | inhibition at 10 µM (FGFR3 (K650E)): 27 to 100% | inhibition at 10 µM (Tek): 12 to 100%
Structure (SMILES): CCN1CCN(Cc2ccc(Nc3cc(N(C)C(=O)Nc4c(Cl)c(OC)cc(OC)c4Cl)ncn3)cc2C(F)(F)F)CC1 [Example 169, 3-(2,6-Dichloro-3,5-dimethoxy-phenyl)-1-{6-[4-(4-ethyl-piperazin-1-ylmethyl)-3-trifluoromethyl-phenylamino]-pyrimidin-4-yl}-1-methyl-urea]

inhibition at 10 µM (KDR): 67 to 100% | inhibition at 10 µM (FGFR3 (K650E)): 27 to 100% | inhibition at 10 µM (Tek): 12 to 100%
Structure (SMILES): O=C(Nc1cc(Nc2cccc(Cl)c2)ncn1)Nc1ccccc1Br [Example 129, 1-(2-Bromo-phenyl)-3-[6-(3-chloro-phenylamino)-pyrimidin-4-yl]-urea]

inhibition at 10 µM (KDR): 67 to 100% | inhibition at 10 µM (FGFR3 (K650E)): 27 to 100% | inhibition at 10 µM (Tek): 12 to 100%
Structure (SMILES): Cc1cccc(C)c1NC(=O)N(C)c1cc(Nc2cccc(Cl)c2)ncn1 [Example 127, 1-[6-(3-Chloro-phenylamino)-pyrimidin-4-yl]-3-(2,6-dimethyl-phenyl)-1-methyl-urea]

inhibition at 10 µM (KDR): 67 to 100% | inhibition at 10 µM (FGFR3 (K650E)): 27 to 100% | inhibition at 10 µM (Tek): 12 to 100%
Structure (SMILES): CCN(CC)CCCOc1ccc(Nc2cc(NC(=O)Nc3ccccc3Br)ncn2)cc1 [Example 104, 1-(2-Bromo-phenyl)-3-{6-[4-(3-diethylamino-propoxy)-phenylamino]-pyrimidin-4-yl}-urea]
